Legend:
LD50 in a mouse = details: in vivo, read-out: dosage reaching the LD50 limit
Source text: The upper limit of the amount of the composition of the present invention will depend upon how the extract is made and may be determined by the levels at which toxicity or irritation becomes an issue. Thus, for surface cleansers, very high concentrations can be employed, whereas for skin cleansers, oral care or other products used for direct contact with humans or animals, lower concentrations will be desirable to avoid irritation or toxicity issues. […] Use of the term, “safe amount” herein refers to concentrations which are sufficiently below the above-mentioned amounts to avoid toxic effects in humans or animals.

[1] = tested on: a variety of common bacteria; test: bactericidal amounts for common bacteria; format: cell-based
Source text: The composition of the present invention is preferably used in amounts that deliver at least about 2 ppm of anemonin, protoanemonin, diterpenoid alkaloids, or combinations thereof, more preferably, at least about 5 ppm of anemonin, protoanemonin, diterpenoid alkaloids, or combinations thereof, and most preferably at least about 15 ppm of anemonin, protoanemonin, diterpenoid alkaloids, or combinations thereof.

Compound	LD50 (LD50 in a mouse)	amount that is generally bactericidal [1]
O=C1C=CC2(CCC23C=CC(=O)O3)O1 (stereo not drawn) [anemonin]	150 mg/kg	
C=C1C=CC(=O)O1 [protoanemonin]	190 mg/kg	25-200 ppm

Reference: patent US6951833B2, “Anti-microbial compositions” (priority 2002, dated 2005)
